From PMC8765781, “A platform of assays for the discovery of anti-Zika small-molecules with activity in a 3D-bioprinted outer-blood-retina model” (PLoS ONE, 2022)
Where two headings read alike, the source gives them in different places.

Test system: wild-type ZIKV (Ugandan MR766 strain) in Vero cells
Test: ZIKV cytopathic effect (CPE) inhibition qHTS assay, CellTiter-Glo readout
Assay type: cell-based, Zika virus
Settings: for AC50 / Emax: Zika virus, Vero; for Emax: read-out: Max response
[1] = read-out: Log AC50 (M) (converted)

SMILES | Curve class | Efficacy | AC50 [M] | AC50 (read-out: Log AC50 (converted)) [M] | Emax [%] | CC-v2 (curve class classification of the dose response curve) | AC50 [1] [M] | Identified as active in CPE assay validation set
C/C(=C\CCC(C)CCO)C(=O)OC1(C)CCC2C(C(=O)O)=COC(OC3OC(CO)C(O)C(O)C3O)C21 (centres unmarked) [NCGC00380886-01] | -3 | -68.93 | 1.12e-05 | 1.12e-05 | -7.99 |  |  | 
C=C1/C(=C/C=C2\CCC[C@]3(C)[C@@H]([C@H](C)/C=C/[C@@H](C)C(C)C)CC[C@@H]23)C[C@@H](O)C[C@@H]1O [NCGC00386145-01] |  | -42.433 | 6.51e-05 |  |  | -3 | 6.51e-05 | 
C/C=C(/C)C(=O)O[C@H]1C=C(CO)C(=O)[C@H](OC(=O)/C(C)=C/CO)[C@H]1C(C)C [NCGC00169078-03] |  | -32.45 | 5.08e-05 |  |  | -3 | 5.08e-05 | 
O=C1N(CC2CCCCN2)CCN1c1ccccc1 (centres unmarked) [NCGC00370981-01] |  | -38.034 | 2.91e-05 |  |  | -3 | 2.91e-05 | 
CC(C)C[C@H](CO)Nc1nc(S[C@@H](C)c2ccccc2)nc2nc(N)sc12 [NCGC00386735-01] |  | -23.549 | 5.17e-05 |  |  |  | 5.17e-05 | 
O=C1[C@H](CC[C@H](O)c2ccc(F)cc2)[C@@H](c2ccc(O)cc2)N1c1ccc(F)cc1 [NCGC00263575-07] |  | -30.405 | 2.91e-05 |  |  |  | 2.91e-05 | 
Cc1cc(=O)oc2c(C=O)c(O)ccc12 [NCGC00379137-01] |  | -45.072 | 5.8e-05 |  |  | -2.2 | 5.8e-05 | 
CCNC(=O)Nc1ccc(-c2nc3c(c(N4CCOC[C@@H]4C)n2)CCN(c2ncccn2)C3)cc1 [NCGC00378864-01] |  | -63.761 | 2.06e-05 |  |  |  | 2.06e-05 | 
CC(=O)OC12C(O)C(C)C3(O)C4C=C(C)C(=O)C4CC(CO)=CC3C1C2(C)C (centres unmarked) [NCGC00385123-01] |  | -66.621 | 1.12e-05 |  |  | -3 | 1.12e-05 | 
C=C(C)C(=O)O[C@H]1[C@H]2C(=C)C(=O)O[C@@H]2C[C@@H](C)/C=C\C(=O)[C@](C)(O)[C@@H]1OC(C)=O [NCGC00169210-02] | -3 | -39.663 | 3.55e-05 | 3.55e-05 | -40.2 |  |  | 
C=C(CO)C(=O)O[C@H]1C/C(C)=C/CC/C(CO)=C/[C@H]2OC(=O)C(=C)[C@H]12 [NCGC00380889-01] |  | -76.574 | 1.43e-05 |  |  | -3 | 1.43e-05 | 
CO[C@H]1/C=C/C=C/C=C/C[C@H](OC(=O)[C@@H](C)NC(=O)C2CCCCC2)[C@H](C)[C@@H](O)/C(C)=C\CCc2cc(O)cc(c2)NC(=O)C1 [NCGC00380800-01] |  | -73.026 | 5.44e-06 |  |  | -1.2 | 5.44e-06 | 
CC1CCC2C(C)(C)C(O)CCC2(C)C12Cc1c(O)cc3c(c1O2)CNC3=N (centres unmarked) [NCGC00386084-01] |  | -59.279 | 5.08e-07 |  |  |  | 5.08e-07 | 
C[S+]([O-])c1ccc(-c2nc(-c3ccncc3)c(-c3ccc(F)cc3)[nH]2)cc1 (centres unmarked) [NCGC00025035, SB-203580, reference compound] |  |  |  |  |  |  |  | identified
CC1=CC(=O)[C@@H](O)[C@]2(C)C3[C@@H](O)[C@@H]4OC(=O)[C@@H]([C@H]4C)[C@]3(C)C(=O)C[C@@H]12 (some centres unmarked) [NCGC00384574-01] |  | -58.007 | 1.61e-06 |  |  | -1.2 | 1.61e-06 | 
C=CC(C)(O)CC[C@@H]1[C@@]2(C)CCCC(C)(C)C2CC[C@@]1(C)O (some centres unmarked) [NCGC00386171-01] |  | -26.101 | 5.8e-05 |  |  |  | 5.8e-05 | 
C=C1C(=O)O[C@H]2CC(=C)[C@H]3CC[C@@](C)(O)[C@@H]3CC12 (some centres unmarked) [NCGC00385616-01] |  | -31.171 | 7.31e-05 |  |  | -3 | 7.31e-05 | 
